Results on 1 molecule are retold here after patent US5378846A, “1,2,3,4-tetrahydropyrrolo-[1,2-a]-pyrazine derivatives” (Russian-American Institute For New Drug Development, priority 1993, dated 1995).

In series [1] the test system is duration of immobility in mice. Kind of series: Behavioural despair test (forced swimming). Format: in vivo, outbred male mice. To be noted: for The duration of immobility: i.p. The protocol: (§1) Compounds according to the present invention were checked for their influence on gross behaviour. The experiments described herein (Examples 11, 12, 13, 14, and 15) were carried out using outbred male mice weighing approximately 18-24 g. Each substance was administered intraperitoneally 45 min. before the experiment. Locomotor activity was estimated individually for each animal for 3 min. using an actometer `Era-1` (Russia).
The influence of compounds on behavioral despair was studied according to the model described by Porsolt et al., Arch. int. pharmacodyn.et ther., 228, 327-[…] (1977), which is incorporated herein by reference. Mice, when forced to swim in a cylinder of water without the possibility of escape, rapidly adopt a characteristic immobile posture. […] The only movements they make are those necessary to keep their heads above water.

A short description of the next series: Acute toxicity in mice. To be noted: mouse, in vivo, ip, mice, i.p. On the procedure:
as §1
(§2) The compounds of the present invention were checked for acute toxicity in outbred male mice (18-22 g.). They were administered intraperitoneally and the lethality was estimated 24 hours later (Table 6). In the dose range of 500-1000 mg/kg i.p. Compound 1 caused death in 50% of the animals. Compound 1 is almost 5 times less toxic than other compounds.

The next series concerns outbred male mice. Nature of the series: Acute toxicity in mice. To be noted: mouse, in vivo, ip. On the procedure: as §1, §2
The next series deals with motor behavior in mice. Nature of the series: Rotating rod test (coordination of movements and myorelaxation). To be noted: for Disturbances according to rotating rod test, effect in %: mice. On the procedure: The influence of Compound 1 on the motor behavior was studied according to a "rotating rod" test and a "horizontal wire" test in outbred male mice (18-22 g). A rotating rod (2 cm diameter and 5 rpm speed) was used. Acquisition was defined as the ability to remain on the rotating rod for 2 min. Each animal had two trials. According to the "horizontal wire" test a mouse was hung on the wire (0.3 cm. diameter, wire was fixed horizontally 40 cm above the floor) by the forepaws. The ability to pull the hind legs up to the wire for 2 min. was a criterion of test performance.

“Also recorded” adds a separate entry of the source. Read-outs that look alike come from different tables or passages of the source.

With `O=C(O)CCC(=O)O.c1cc2n(c1)CCNC2` [Compound 1, 1,2,3,4-tetrahydropyrrolo-[1,2-a]-pyrazine hydrosuccinate], the “Influence on duration of immobility, in words” value in series [1] (forced swimming) was “did not show any activity; also recorded: does not change the duration of immobility”. Besides, the “The duration of immobility” value came out at 117.3 ± 6.9 s in series [1] (5.0 mg/kg) and 110.8 ± 5.1 s in series [1] (10.0 mg/kg). Also, the LD50 at 24 h is 500 to 1000 mg/kg in “Acute toxicity in mice” (24 hours, read-out: Dose range causing death in 50% of the animals) and 1540 mg/kg in the series “Acute toxicity in mice” (lethality 24 hours later, Table 6 (range in brackets beside), read-out: LD50). Moreover, the “Times less toxic than other compounds” value in the series on outbred male mice is about 5 times. The “Disturbances according to rotating rod test, effect in %” value in the series with motor behavior in mice (dose 5.0), in the series on motor behavior in mice (dose 10.0), in the series on motor behavior in mice (dose 20.0), with motor behavior in mice (dose 40.0), with motor behavior in mice (dose 80.0) and in the series on motor behavior in mice (dose 250.0) was 0% in each case. In the series with motor behavior in mice (rotating rod and horizontal wire tests, Compound 1 5-250 mg/kg), the “Motor behavior disturbance and myorelaxation, in words” value was “does not manifest amnestic and myorelaxant effects; also recorded: fails to evoke disturbances in the coordination of movements and myorelaxation”.
